Assay results taken from ChEMBL document CHEMBL1201862, “PubChem BioAssay data set” (2004).
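Assay format: 96-well plates, 48-hour exposure. The concentration for 50% growth inhibition is given as GI50.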 Active and inactive are the calls of the source. Cut-off read from the data, not from the text of the source: active = GI50 up to about 1.1 µM and inactive = higher.

Tests used:
Experiment in all cases: growth of human tumour cells (NCI), 48 h
MOLT-4 = system: MOLT-4
HCT-15 = system: HCT-15
PC-3 = system: PC-3
NCI-H522 = system: NCI-H522
SF-295 = system: SF-295
OVCAR-8 = system: OVCAR-8
RXF 393 = system: RXF 393
Malme-3M = system: Malme-3M
SW-620 = system: SW-620
Hs-578T = system: Hs-578T
COLO 205 = system: COLO 205
OVCAR-3 = system: OVCAR-3
M14 = system: M14
SK-MEL-28 = system: SK-MEL-28
T47D = system: T47D
HL-60 = system: HL-60
NCI/ADR-RES = system: NCI/ADR-RES
OVCAR-5 = system: OVCAR-5
UACC-257 = system: UACC-257
EKVX = system: EKVX
RPMI-8226 = system: RPMI-8226
KM12 = system: KM12
A498 = system: A498
SN12C = system: SN12C
SK-OV-3 = system: SK-OV-3
SF-539 = system: SF-539
A549 = system: A549
HCT-116 = system: HCT-116
CAKI-1 = system: CAKI-1
MDA-N = system: MDA-N
HT-29 = system: HT-29
IGROV-1 = system: IGROV-1
SK-MEL-2 = system: SK-MEL-2
ACHN = system: ACHN
UO-31 = system: UO-31
UACC-62 = system: UACC-62
TK-10 = system: TK-10
786-0 = system: 786-0
HOP-62 = system: HOP-62
CCRF-CEM = system: CCRF-CEM
MDA-MB-231 = system: MDA-MB-231
HCC 2998 = system: HCC 2998
LOX IMVI = system: LOX IMVI
NCI-H460 = system: NCI-H460
DU-145 = system: DU-145
OVCAR-4 = system: OVCAR-4
SF-268 = system: SF-268
HOP-92 = system: HOP-92
SNB-75 = system: SNB-75
SNB-19 = system: SNB-19
BT-549 = system: BT-549
NCI-H226 = system: NCI-H226
SK-MEL-5 = system: SK-MEL-5
MDA-MB-435 = system: MDA-MB-435
SR = system: SR
U-251 = system: U-251
MCF7 = system: MCF7
K562 = system: K562
NCI-H23 = system: NCI-H23

Measured: GI50

COc1ccc(/C=C/C(=N/NC(=O)N/N=C(/C=C/c2ccc(OC)cc2)C(C)C)C(C)C)cc1
49.5 µM: HCT-15
inactive: MOLT-4 26.1 µM | PC-3 50.9 µM | NCI-H522 63.1 µM | SF-295 99.1 µM | OVCAR-8 75 µM | RXF 393 > 100 µM | Malme-3M 62.8 µM | SW-620 > 100 µM | Hs-578T > 100 µM | COLO 205 43.7 µM | OVCAR-3 41.9 µM | M14 44.4 µM | SK-MEL-28 > 100 µM | T47D 25.9 µM | HL-60 33 µM | NCI/ADR-RES 69.7 µM | OVCAR-5 99.5 µM | UACC-257 > 100 µM | EKVX 40 µM | RPMI-8226 33.2 µM | KM12 51.2 µM | A498 > 100 µM | SN12C > 100 µM | SK-OV-3 > 100 µM | SF-539 > 100 µM | A549 45.3 µM | HCT-116 66.1 µM | CAKI-1 > 100 µM | MDA-N > 100 µM | HT-29 42.3 µM | IGROV-1 > 100 µM | SK-MEL-2 > 100 µM | ACHN 73.8 µM | UO-31 76.2 µM | UACC-62 > 100 µM | TK-10 50 µM | 786-0 > 100 µM | HOP-62 22 µM | CCRF-CEM 48.9 µM | MDA-MB-231 > 100 µM | HCC 2998 38.7 µM | LOX IMVI > 100 µM | NCI-H460 48.3 µM | DU-145 80.2 µM | OVCAR-4 > 100 µM | SF-268 > 100 µM | HOP-92 66.7 µM | SNB-75 > 100 µM | SNB-19 > 100 µM | BT-549 > 100 µM | NCI-H226 > 100 µM | SK-MEL-5 95.9 µM | MDA-MB-435 > 100 µM | SR > 100 µM | U-251 71 µM | MCF7 64.6 µM | K562 37.8 µM | NCI-H23 > 100 µM

O=c1cc(CO)oc(C(O)c2ccccc2)c1O (centres undefined)
> 100 µM: HCT-15
inactive: MOLT-4 > 100 µM | PC-3 > 100 µM | NCI-H522 > 100 µM | SF-295 > 100 µM | OVCAR-8 > 100 µM | RXF 393 > 100 µM | Malme-3M > 100 µM | SW-620 > 100 µM | Hs-578T > 100 µM | COLO 205 > 100 µM | OVCAR-3 > 100 µM | M14 > 100 µM | SK-MEL-28 > 100 µM | T47D > 100 µM | HL-60 > 100 µM | NCI/ADR-RES > 100 µM | OVCAR-5 > 100 µM | UACC-257 > 100 µM | RPMI-8226 > 100 µM | KM12 > 100 µM | A498 > 100 µM | SN12C > 100 µM | SK-OV-3 > 100 µM | SF-539 > 100 µM | A549 > 100 µM | HCT-116 > 100 µM | CAKI-1 > 100 µM | MDA-N > 100 µM | HT-29 > 100 µM | IGROV-1 > 100 µM | SK-MEL-2 > 100 µM | ACHN > 100 µM | UO-31 > 100 µM | UACC-62 > 100 µM | TK-10 > 100 µM | 786-0 > 100 µM | HOP-62 > 100 µM | MDA-MB-231 > 100 µM | HCC 2998 > 100 µM | LOX IMVI > 100 µM | NCI-H460 > 100 µM | DU-145 > 100 µM | OVCAR-4 > 100 µM | SF-268 > 100 µM | HOP-92 > 100 µM | SNB-75 > 100 µM | SNB-19 > 100 µM | BT-549 > 100 µM | NCI-H226 > 100 µM | SK-MEL-5 > 100 µM | MDA-MB-435 > 100 µM | SR > 100 µM | U-251 > 100 µM | MCF7 > 100 µM | NCI-H23 > 100 µM

CC1CN(c2cc3c(cc2F)c(=O)c(C(=O)O)cn3-c2ccc(F)cn2)CC(C)N1 (centres undefined)
inactive: MOLT-4 > 100 µM | PC-3 > 100 µM | NCI-H522 22.5 µM | SF-295 > 100 µM | OVCAR-8 > 100 µM | RXF 393 > 100 µM | Malme-3M > 100 µM | SW-620 > 100 µM | Hs-578T > 100 µM | COLO 205 > 100 µM | OVCAR-3 > 100 µM | M14 > 100 µM | SK-MEL-28 > 100 µM | T47D > 100 µM | HL-60 > 100 µM | NCI/ADR-RES > 100 µM | OVCAR-5 > 100 µM | UACC-257 > 100 µM | EKVX > 100 µM | RPMI-8226 > 100 µM | KM12 > 100 µM | A498 > 100 µM | SN12C > 100 µM | SK-OV-3 > 100 µM | SF-539 > 100 µM | A549 > 100 µM | HCT-116 > 100 µM | CAKI-1 > 100 µM | MDA-N > 100 µM | HT-29 > 100 µM | IGROV-1 > 100 µM | UO-31 > 100 µM | UACC-62 > 100 µM | TK-10 > 100 µM | 786-0 > 100 µM | HOP-62 > 100 µM | CCRF-CEM > 100 µM | MDA-MB-231 > 100 µM | LOX IMVI > 100 µM | NCI-H460 > 100 µM | DU-145 > 100 µM | OVCAR-4 > 100 µM | SF-268 > 100 µM | HOP-92 > 100 µM | SNB-75 > 100 µM | SNB-19 > 100 µM | BT-549 > 100 µM | NCI-H226 > 100 µM | MDA-MB-435 > 100 µM | SR > 100 µM | U-251 > 100 µM | MCF7 > 100 µM | K562 > 100 µM | NCI-H23 > 100 µM
> 100 µM: HCT-15

CC(=O)OC(OC(C)=O)c1ccc2ccc3cccc4ccc1c2c34
inactive: MOLT-4 39.4 µM | PC-3 28.6 µM | SF-295 18.7 µM | OVCAR-8 12.8 µM | RXF 393 11.3 µM | Malme-3M 12.3 µM | Hs-578T 16.1 µM | COLO 205 25.1 µM | OVCAR-3 26.7 µM | M14 24.8 µM | T47D 22.9 µM | HL-60 9.38 µM | NCI/ADR-RES 31.3 µM | OVCAR-5 20 µM | UACC-257 17.1 µM | EKVX 27.4 µM | RPMI-8226 16.3 µM | KM12 9.77 µM | A498 1.48 µM | SN12C 26.7 µM | SK-OV-3 23 µM | SF-539 38.7 µM | A549 > 100 µM | HCT-116 22.4 µM | CAKI-1 9.04 µM | MDA-N 15.2 µM | HT-29 18 µM | IGROV-1 21.7 µM | ACHN 26.2 µM | UO-31 22.3 µM | UACC-62 12.7 µM | TK-10 9.25 µM | 786-0 36.1 µM | CCRF-CEM 42.6 µM | MDA-MB-231 10.1 µM | HCC 2998 11.3 µM | LOX IMVI 16 µM | NCI-H460 21.4 µM | DU-145 21 µM | SF-268 28 µM | HOP-92 17.9 µM | SNB-75 15.7 µM | SNB-19 19.5 µM | BT-549 25.1 µM | NCI-H226 3.08 µM | SK-MEL-5 18.2 µM | MDA-MB-435 18.9 µM | SR 21 µM | U-251 14.3 µM | MCF7 23.6 µM | K562 38.7 µM | NCI-H23 18.7 µM
33.7 µM: HCT-15

COc1cc(CNC(=O)CCCCCCCCCCSC#N)ccc1O
inactive: MOLT-4 3.94 µM | PC-3 6.82 µM | NCI-H522 12.3 µM | SF-295 19.1 µM | OVCAR-8 18.5 µM | RXF 393 10.2 µM | Malme-3M 32.7 µM | SW-620 16.2 µM | Hs-578T 14.2 µM | COLO 205 30.3 µM | OVCAR-3 13.1 µM | M14 7.38 µM | SK-MEL-28 7.66 µM | T47D 8.26 µM | HL-60 5.69 µM | NCI/ADR-RES 17.1 µM | OVCAR-5 30.3 µM | UACC-257 21 µM | EKVX 21.4 µM | RPMI-8226 14.6 µM | KM12 5.83 µM | A498 15.1 µM | SK-OV-3 10.6 µM | SF-539 18 µM | A549 19.1 µM | HCT-116 14.9 µM | CAKI-1 18.2 µM | MDA-N 5.87 µM | HT-29 31.9 µM | IGROV-1 4.59 µM | SK-MEL-2 14.1 µM | ACHN > 10 µM | UO-31 3.52 µM | UACC-62 5.41 µM | TK-10 20.5 µM | 786-0 17.8 µM | CCRF-CEM 8.13 µM | MDA-MB-231 25.7 µM | HCC 2998 > 100 µM | LOX IMVI 12 µM | NCI-H460 13.3 µM | DU-145 17.8 µM | OVCAR-4 25 µM | HOP-92 17.1 µM | SNB-75 11 µM | SNB-19 19.7 µM | BT-549 22.9 µM | NCI-H226 18.1 µM | SK-MEL-5 6.22 µM | MDA-MB-435 5.52 µM | SR 8.47 µM | U-251 16.8 µM | MCF7 17.1 µM | K562 6.9 µM | NCI-H23 20.6 µM
6.93 µM: HCT-15
